The values below come from patent US10219516B2, “Molecules having pesticidal utility, and intermediates, compositions, and processes, related thereto” (priority 2015, dated 2019).

Structures are written as SMILES. Read-outs that look alike come from different tables or passages of the source.

Holding throughout (type): in vivo
Experiment [1] concerns Beet Armyworm (Spodoptera exigua, LAPHEG). Nature of the experiment: Bioassay on Beet Armyworm (BAW), 128-well diet tray assay. The gist of the method:
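In a 128-well format, eight wells per compound received a surface dose of 50 μg/cm^2 on artificial diet. After drying, each well got one to five second instar larvae, held at 25° C. with 14:10 photoperiod. Mortality percentages after five to seven days were averaged.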

The test system of experiment [2] is Cabbage Looper (Trichoplusia ni, TRIPNI). Kind of experiment: Bioassay on Cabbage Looper (CL), 128-well diet tray assay. The conditions noted are these: Trichoplusia ni. The gist of the method:
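Diet-incorporation-free surface assay: 50 μg/cm^2 compound in acetone-water (90:10), dried on diet; 1–5 2nd-instar larvae/well; 8 wells; vented cover; 25° C., 14:10 L:D, 5–7 d; % mortality averaged over wells.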

Experiment [3] relates to Yellow Fever Mosquito (Aedes aegypti, AEDSAE). Nature of the experiment: Bioassay on Yellow Fever Mosquito (YFM), 96-well plate larval assay. The conditions noted are these: for YFM rating: Yellow Fever Mosquito, 96-well plate larval assay; for YFM (Biological Results, rating): Species YFM (Yellow Fever Mosquito). Put shortly:
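Each well was scored for mortality after 3 days at room temperature under a non-evaporative lid. Test molecules came from DMSO masters (4000 ppm stock) diluted with water/acetone 90:10 and dispensed into six replicate plates, which were then infested with roughly 1-day-old larvae in liver-powder water.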

The mark [4] stands for this setting: Beet Armyworm, 128-well diet tray assay, read-out: BAW rating.
Where [5] appears, read: Cabbage Looper, 128-well diet tray assay, read-out: CL rating.
[6] abbreviates: Species BAW (Beet Armyworm), read-out: BAW (Biological Results, rating).
Where [7] appears, read: Species CL (Cabbage Looper), read-out: CL (Biological Results, rating).

For `CN(C(=O)c1cc(NC(=O)[C@H]2[C@H](c3cc(Cl)cc(C(F)F)c3)C2(Cl)Cl)ccc1Cl)c1ccc(F)cc1` (relative stereo) [F592, 2-Chloro-5-(trans-2,2-dichloro-3-(3-chloro-5-(difluoromethyl)phenyl)cyclopropane-1-carboxamido)-N-(4-fluorophenyl)-N-methylbenzamide], the pest or weed control at 50 µg/cm2 in experiment [1] (setting [4]) and in experiment [2] (setting [5]) was 50 to 100% each time. Moreover, the YFM rating result in experiment [3] is “A (80-100)”.
For `O=C(Nc1ccc(F)cc1F)c1cc(NC(=O)[C@H]2[C@H](c3cc(F)cc(F)c3)C2(Cl)Cl)ccc1Cl` (relative stereo) [F411, 2-Chloro-5-(trans)-(2,2-dichloro-3-(3,5-difluorophenyl)cyclopropane-1-carboxamido)-N-(2,4-difluorophenyl)benzamide], the pest or weed control at 50 µg/cm2 in experiment [1] (setting [4]) and in experiment [2] (setting [5]) was 50 to 100% throughout. Also, the YFM rating entry in experiment [3] is “A (80-100)”.
As to `Nc1c(F)cc(NC(=O)c2cc(NC(=O)[C@H]3[C@H](c4ccc(Cl)c(Cl)c4)C3(Cl)Cl)ccc2Cl)cc1F` [F379, N-(4-Amino-3,5-difluorophenyl)-2-chloro-5-((1R,3R)-2,2-dichloro-3-(3,4-dichlorophenyl)cyclopropane-1-carboxamido)benzamide], the pest or weed control at 50 µg/cm2 in experiment [1] (setting [4]) and in experiment [2] (setting [5]) was 50 to 100% throughout. The YFM rating entry in experiment [3] is on record as “A (80-100)”.
As for `O=C(Nc1ccncn1)c1cc(NC(=O)[C@H]2[C@H](c3cc(Cl)cc(Cl)c3)C2(Cl)Cl)ccc1Cl` (relative stereo) [F296, trans-2-Chloro-5-(2,2-dichloro-3-(3,5-dichlorophenyl)cyclopropane-1-carboxamido)-N-(pyrimidin-4-yl)benzamide], the pest or weed control at 50 µg/cm2 in experiment [1] (setting [6]) and in experiment [2] (setting [7]) was 50 to 100% throughout. In addition, the “YFM (Biological Results, rating)” value in experiment [3] is “A (80-100)”.
On to `C=Cc1c(F)cnc(NC(=O)c2cc(NC(=O)[C@H]3[C@H](c4cc(Cl)cc(Cl)c4)C3(Cl)Cl)ccc2Cl)c1F` (relative stereo) [F393, trans-2-chloro-5-(2,2-dichloro-3-(3,5-dichlorophenyl)cyclopropane-1-carboxamido)-N-(3,5-difluoro-4-vinylpyridin-2-yl)benzamide], for which the pest or weed control at 50 µg/cm2 in experiment [1] (setting [4]) and in experiment [2] (setting [5]) was 50 to 100% throughout. In experiment [3], the YFM rating result is reported as “A (80-100)”.
On to `C=Cc1cc([C@H]2[C@H](C(=O)Nc3ccc(Cl)c(C(=O)Nc4ccc(F)cc4F)c3)C2(Cl)Cl)ccc1C(F)(F)F` (relative stereo) [F392, 2-Chloro-5-(trans-2,2-dichloro-3-(4-(trifluoromethyl)-3-vinylphenyl)cyclopropane-1-carboxamido)-N-(2,4-difluorophenyl)benzamide], for which the pest or weed control at 50 µg/cm2 in experiment [1] (setting [4]) and in experiment [2] (setting [5]) was 50 to 100% in each case. Moreover, the YFM rating entry in experiment [3] is “A (80-100)”.
For `Cc1cc(N)ccc1NC(=O)c1cc(NC(=O)[C@H]2[C@H](c3cc(Cl)c(Cl)c(Cl)c3)C2(Cl)Cl)ccc1Cl` (relative stereo) [F227, trans-N-(4-Amino-2-methylphenyl)-2-chloro-5-(2,2-dichloro-3-(3,4,5-trichlorophenyl)cyclopropane-1-carboxamido)benzamide], the pest or weed control at 50 µg/cm2 in experiment [1] (setting [6]) and in experiment [2] (setting [7]) was 50 to 100% in each case. For the same compound, the “YFM (Biological Results, rating)” value in experiment [3] was “A (80-100)”.
For the compound `CN(C(=O)c1cc(NC(=O)[C@H]2[C@H](c3ccc(F)c(C(F)F)c3)C2(Cl)Cl)ccc1Cl)c1ccc(F)cc1` (relative stereo) [F595, 2-Chloro-5-(trans-2,2-dichloro-3-(3-(difluoromethyl)-4-fluorophenyl)cyclopropane-1-carboxamido)-N-(4-fluorophenyl)-N-methylbenzamide], the pest or weed control at 50 µg/cm2 in experiment [1] (setting [4]) and in experiment [2] (setting [5]) was 50 to 100% each time. In experiment [3], the YFM rating result was “A (80-100)”.
`C=C(F)c1cc(Cl)cc([C@H]2[C@H](C(=O)Nc3ccc(Cl)c(C(=O)Nc4ccc(F)cc4F)c3)C2(Cl)Cl)c1` (relative stereo) [F386, 2-Chloro-5-(trans-2,2-dichloro-3-(3-chloro-5-(1-fluorovinyl)phenyl)cyclopropane-1-carboxamido)-N-(2,4-difluorophenyl)benzamide]: the pest or weed control at 50 µg/cm2 in experiment [1] (setting [4]) and in experiment [2] (setting [5]) was 50 to 100% in each case. Besides, in experiment [3], the YFM rating result was “A (80-100)”.
Consider `O=C(Nc1ncc(F)cc1F)c1cc(NC(=O)[C@H]2[C@H](c3cc(Cl)c(Cl)c(Cl)c3)C2(Cl)Cl)ccc1Cl` [F311, 2-Chloro-5-((1R,3R)-2,2-dichloro-3-(3,4,5-trichlorophenyl)cyclopropane-1-carboxamido)-N-(3,5-difluoropyridin-2-yl)benzamide], for which the pest or weed control at 50 µg/cm2 in experiment [1] (setting [6]) and in experiment [2] (setting [7]) was 50 to 100% throughout. Further, the “YFM (Biological Results, rating)” value in experiment [3] is on record as “A (80-100)”.
`CC(C)(C)OC(=O)Nc1ccc(NC(=O)c2cc(NC(=O)[C@H]3[C@H](c4cc(Cl)cc(Cl)c4)C3(Cl)Cl)ccc2Cl)cc1` (relative stereo) [PF13, trans-tert-Butyl-(4-(2-chloro-5-(2,2-dichloro-3-(3,5-dichlorophenyl)cyclopropane-1-carboxamido)benzamido)phenyl)carbamate]: the pest or weed control at 50 µg/cm2 in experiment [1] (setting [4]) and in experiment [2] (setting [5]) was 50 to 100% in each case. Moreover, in experiment [3], the YFM rating entry is listed as “A (80-100)”.
On to `Cc1ccc(NC(=O)c2cc(NC(=O)[C@H]3[C@H](c4cc(Cl)cc(Cl)c4)C3(Cl)Cl)ccc2Cl)c([N+](=O)[O-])c1` (relative stereo) [F231, 2-Chloro-5-(trans-2,2-dichloro-3-(3,5-dichlorophenyl)cyclopropane-1-carboxamido)-N-(4-methyl-2-nitrophenyl)benzamide], for which the pest or weed control at 50 µg/cm2 in experiment [1] (setting [6]) and in experiment [2] (setting [7]) was 50 to 100% throughout. In addition, the “YFM (Biological Results, rating)” value in experiment [3] is listed as “A (80-100)”.
`O=C(Nc1ccc(F)cc1)c1cc(NC(=O)[C@H]2[C@H](c3cc(Cl)cc(Cl)c3)C2(Cl)Cl)ccc1I` (relative stereo) [F4, trans-5-(2,2-Dichloro-3-(3,5-dichlorophenyl)cyclopropane-1-carboxamido)-N-(4-fluorophenyl)-2-iodobenzamide]: the pest or weed control at 50 µg/cm2 in experiment [1] (setting [6]) and in experiment [2] (setting [7]) was 50 to 100% in each case. Moreover, the “YFM (Biological Results, rating)” value in experiment [3] was “A (80-100)”.
As to `Nc1ccc(NC(=O)c2cc(NC(=O)[C@H]3[C@H](c4cc(Cl)cc(Cl)c4)C3(Cl)Cl)ccc2Cl)nc1` (relative stereo) [F305, N-(5-Aminopyridin-2-yl)-2-chloro-5-(trans-2,2-dichloro-3-(3,5-dichlorophenyl)cyclopropane-1-carboxamido)benzamide], the pest or weed control at 50 µg/cm2 in experiment [1] (setting [6]) and in experiment [2] (setting [7]) was 50 to 100% throughout. The “YFM (Biological Results, rating)” value in experiment [3] is recorded as “A (80-100)”.
On to `CCOC(=O)c1cc2cc(NC(=O)c3cc(NC(=O)[C@H]4[C@H](c5cc(Cl)cc(Cl)c5)C4(Cl)Cl)ccc3Cl)ccc2[nH]1` (relative stereo) [F483, Ethyl 5-(2-chloro-5-(trans)(2,2-dichloro-3-(3,5-dichlorophenyl)cyclopropane-1-carboxamido)benzamido)-1H-indole-2-carboxylate], for which the pest or weed control at 50 µg/cm2 in experiment [1] (setting [4]) and in experiment [2] (setting [5]) was 50 to 100% each time. Further, the YFM rating result in experiment [3] is “A (80-100)”.
Regarding `Nc1c(F)cc(F)cc1NC(=O)c1cc(NC(=O)[C@H]2[C@H](c3ccc(Cl)c(Cl)c3)C2(Cl)Cl)ccc1Cl` [F377, N-(2-Amino-3,5-difluorophenyl)-2-chloro-5-((1R,3R)-2,2-dichloro-3-(3,4-dichlorophenyl)cyclopropane-1-carboxamido)benzamide], the pest or weed control at 50 µg/cm2 in experiment [1] (setting [4]) and in experiment [2] (setting [5]) was 50 to 100% throughout. Besides, in experiment [3], the YFM rating entry is on record as “A (80-100)”.
Regarding `O=C(Nc1ccc(F)cc1F)c1cc(NC(=O)[C@H]2[C@H](c3ccc(C(F)(F)F)c(F)c3)C2(Cl)Cl)ccc1Cl` (relative stereo) [F347, 2-Chloro-5-(trans)-(2,2-dichloro-3-(3-fluoro-4-(trifluoromethyl)phenyl)cyclopropane-1-carboxamido)-N-(2,4-difluorophenyl)benzamide], the pest or weed control at 50 µg/cm2 in experiment [1] (setting [6]) and in experiment [2] (setting [7]) was 50 to 100% throughout. Moreover, the “YFM (Biological Results, rating)” value in experiment [3] is reported as “A (80-100)”.
Turning to `Cc1cc(Cl)cc([C@H]2[C@H](C(=O)Nc3ccc(Cl)c(C(=O)Nc4ccc(F)cc4)c3)C2(Cl)Cl)c1` (relative stereo) [F116, trans-2-Chloro-5-(2,2-dichloro-3-(3-chloro-5-methylphenyl)cyclopropane-1-carboxamido)-N-(4-fluorophenyl)benzamide], the pest or weed control at 50 µg/cm2 in experiment [1] (setting [6]) and in experiment [2] (setting [7]) was 50 to 100% in each case. In addition, in experiment [3], the “YFM (Biological Results, rating)” value is recorded as “A (80-100)”.
For `CN1Cc2cc(NC(=O)c3cc(NC(=O)[C@H]4[C@H](c5cc(Cl)cc(Cl)c5)C4(Cl)Cl)ccc3Cl)ccc2C1=O` (relative stereo) [F518, 2-Chloro-5-(trans)-(2,2-dichloro-3-(3,5-dichlorophenyl)cyclopropane-1-carboxamido)-N-(2-methyl-1-oxoisoindolin-5-yl)benzamide], the pest or weed control at 50 µg/cm2 in experiment [1] (setting [4]) and in experiment [2] (setting [5]) was 50 to 100% each time. Moreover, the YFM rating entry in experiment [3] was “A (80-100)”.
